Source: patent US20110105623A1 (Biogenic Innovations, LLC, priority 2009, published 2011)
Several values for one entry are separate records, joined by “and”; a condition that tells them apart may be missing. Equal values may be shown once. Read-outs that look alike come from different tables or passages of the source.

Experiments:
Assay type in all cases: cell-based
Bifidobacterium bifidum = test: Probiotic growth in media supplemented with MSM; design: unit not given here; conditions: […] MSM
Text: (§1) Plates were then counted. […] Data are presented in Cfu/mL.

[1] = system: Lactobacillus delbrueckii (Lactobacillus bulgaricus); test: Probiotic growth in media supplemented with MSM; design: unit not given here
Text: as §1

[2] = system: Swine-like H1N1 Influenza A virus strain A/California/04/2009

## Methylsulfonylmethane [MSM]
Bifidobacterium bifidum; 56 h
  Growth of Bifidobacteruim bifidum: 8.35
Bifidobacterium bifidum; 64 h
  Growth of Bifidobacteruim bifidum: 8.30
Bifidobacterium bifidum; 72 h
  Growth of Bifidobacteruim bifidum: 10.12
[1]; 0.125% MSM, 0 h
  Growth of Lactobacillus bulgaricus: 2.29
[1]; 0.125% MSM, 8 h
  Growth of Lactobacillus bulgaricus: 4.15
[1]; 0.125% MSM, 16 h
  Growth of Lactobacillus bulgaricus: 8.22
[1]; 0.125% MSM, 24 h
  Growth of Lactobacillus bulgaricus: 9.04
[1]; 0.125% MSM, 32 h
  Growth of Lactobacillus bulgaricus: 8.55
[1]; 0.125% MSM, 40 h
  Growth of Lactobacillus bulgaricus: 9.29
[1]; 0.125% MSM, 48 h
  Growth of Lactobacillus bulgaricus: 10.94
[1]; 0.125% MSM, 56 h
  Growth of Lactobacillus bulgaricus: 8.00
[1]; 0.125% MSM, 64 h
  Growth of Lactobacillus bulgaricus: 8.59
[1]; 0.125% MSM, 72 h
  Growth of Lactobacillus bulgaricus: 6.74
[1]; 0.2% MSM, 0 h
  Growth of Lactobacillus bulgaricus: 2.25
[1]; 0.2% MSM, 8 h
  Growth of Lactobacillus bulgaricus: 4.08
[1]; 0.2% MSM, 16 h
  Growth of Lactobacillus bulgaricus: 8.34
[1]; 0.2% MSM, 24 h
  Growth of Lactobacillus bulgaricus: 9.10
[1]; 0.2% MSM, 32 h
  Growth of Lactobacillus bulgaricus: 9.60
[1]; 0.2% MSM, 40 h
  Growth of Lactobacillus bulgaricus: 9.11
[1]; 0.2% MSM, 48 h
  Growth of Lactobacillus bulgaricus: 11.07
[1]; 0.2% MSM, 56 h
  Growth of Lactobacillus bulgaricus: 8.79
[1]; 0.2% MSM, 64 h
  Growth of Lactobacillus bulgaricus: 8.79
[1]; 0.2% MSM, 72 h
  Growth of Lactobacillus bulgaricus: 6.72
[1]; 0.50% MSM, 0 h
  Growth of Lactobacillus bulgaricus: 2.23
[1]; 0.50% MSM, 8 h
  Growth of Lactobacillus bulgaricus: 4.42
[1]; 0.50% MSM, 16 h
  Growth of Lactobacillus bulgaricus: 8.28
[1]; 0.50% MSM, 24 h
  Growth of Lactobacillus bulgaricus: 9.05
[1]; 0.50% MSM, 32 h
  Growth of Lactobacillus bulgaricus: 9.54
[1]; 0.50% MSM, 40 h
  Growth of Lactobacillus bulgaricus: 9.40
[1]; 0.50% MSM, 48 h
  Growth of Lactobacillus bulgaricus: 10.82
[1]; 0.50% MSM, 56 h
  Growth of Lactobacillus bulgaricus: 9.14
[1]; 0.50% MSM, 64 h
  Growth of Lactobacillus bulgaricus: 8.80
[1]; 0.50% MSM, 72 h
  Growth of Lactobacillus bulgaricus: 6.72
[1]; 1% MSM, 0 h
  Growth of Lactobacillus bulgaricus: 2.29
[1]; 1% MSM, 8 h
  Growth of Lactobacillus bulgaricus: 4.83
[1]; 1% MSM, 16 h
  Growth of Lactobacillus bulgaricus: 8.36
[1]; 1% MSM, 24 h
  Growth of Lactobacillus bulgaricus: 9.03
[1]; 1% MSM, 32 h
  Growth of Lactobacillus bulgaricus: 9.31
[1]; 1% MSM, 40 h
  Growth of Lactobacillus bulgaricus: 9.34
[1]; 1% MSM, 48 h
  Growth of Lactobacillus bulgaricus: 11.23
[1]; 1% MSM, 56 h
  Growth of Lactobacillus bulgaricus: 8.11
[1]; 1% MSM, 64 h
  Growth of Lactobacillus bulgaricus: 6.50
[1]; 1% MSM, 72 h
  Growth of Lactobacillus bulgaricus: 6.45
[1]; 5% MSM, 0 h
  Growth of Lactobacillus bulgaricus: 2.19
[1]; 5% MSM, 8 h
  Growth of Lactobacillus bulgaricus: 3.28
[1]; 5% MSM, 16 h
  Growth of Lactobacillus bulgaricus: 7.39
[1]; 5% MSM, 24 h
  Growth of Lactobacillus bulgaricus: 8.50
[1]; 5% MSM, 32 h
  Growth of Lactobacillus bulgaricus: 9.29
[1]; 5% MSM, 40 h
  Growth of Lactobacillus bulgaricus: 9.37
[1]; 5% MSM, 48 h
  Growth of Lactobacillus bulgaricus: 10.92
[1]; 5% MSM, 56 h
  Growth of Lactobacillus bulgaricus: 10.07
[1]; 5% MSM, 64 h
  Growth of Lactobacillus bulgaricus: 10.96
[1]; 5% MSM, 72 h
  Growth of Lactobacillus bulgaricus: 8.62
[1]; […] MSM, 0 h
  Growth of Lactobacillus bulgaricus: 2.26
[1]; […] MSM, 8 h
  Growth of Lactobacillus bulgaricus: 4.57
[1]; […] MSM, 16 h
  Growth of Lactobacillus bulgaricus: 8.09
[1]; […] MSM, 24 h
  Growth of Lactobacillus bulgaricus: 9.01
[1]; […] MSM, 32 h
  Growth of Lactobacillus bulgaricus: 9.15
[1]; […] MSM, 40 h
  Growth of Lactobacillus bulgaricus: 9.27
[1]; […] MSM, 48 h
  Growth of Lactobacillus bulgaricus: 11.37
[1]; […] MSM, 56 h
  Growth of Lactobacillus bulgaricus: 8.23
[1]; […] MSM, 64 h
  Growth of Lactobacillus bulgaricus: 8.75
[1]; […] MSM, 72 h
  Growth of Lactobacillus bulgaricus: 6.51
[2]
  Average Log Stimulation: 0.17log10
  Average Percent Stimulation: 32.39%
  Average TCID50: 3.67log10 and 4.42log10 and 4.67log10 and 5.00log10 and 4.58log10 and 4.17log10
  CPE at dilution −6: 0000
  CPE at dilution −7: 0000
  Log Stimulation: 0.17log10
  Percent Stimulation: 32.39%
  TCID50: 3.75log10 and 3.50log10 and 4.00log10 and 4.50log10 and 4.25log10 and 4.75log10 and 5.00log10
  average percent reduction: 93.08% and 90.00% and 61.10% and 78.12%
[2]; 1% MSM
  average log10 reduction: 0.25 log10
  average percent reduction: 43.77%
[2]; 2% MSM
  average log10 reduction: 0.41 log10
  average percent reduction: 61.10%
[2]; 3% MSM
  average log10 reduction: 0.00 log10
  average percent reduction: 00.00%
[2]; 4% MSM
  average log10 reduction: 0.16 log10
  average percent reduction: 30.82%
[2]; Dose 5.312 mM (log dose 0.7252581)
  Response, % reduction: 91.680% and 53.230% and 73.700%
[2]; Dose 31.871 mM (log dose 1.503396)
  Response, % reduction: 0.000%
[2]; Dose 53.118 mM (log dose 1.725242)
  Response, % reduction: 53.230% and 73.700%
[2]; log(inhibitor) vs. normalized response, variable slope
  HillSlope, best-fit value: 0.2135
[2]; log(inhibitor) vs. normalized response, variable slope, dose in mM
  LogIC50, best-fit value: 0.7087
